The values that follow are results of earlier work, collected in US8703192B2, “Dosage form containing pantoprazole as active ingredient” (Takeda GmbH, priority 2003, dated 2014).

For the series the following is noted: in comparison to pantoprazole itself or to pantoprazole sodium sesquihydrate.

For `COc1ccnc(C[S+]([O-])c2nc3cc(OC(F)F)ccc3[n-]2)c1OC.COc1ccnc(C[S+]([O-])c2nc3cc(OC(F)F)ccc3[n-]2)c1OC.O.O.[Mg+2]` (stereo not shown) [Magnesium bis[5-[difluoromethoxy]-2-[[3,4-dimethoxy-2-pyridinyl]-methyl]sulfinyl]-1H-benzimidazolide]dihydrate], the stability properties entry is on record as “improved stability properties”.
